Measurements from US11260083B2, “Compositions and methods for treating and preventing graft versus host disease” (The Regents of the University of Michigan, priority 2016, dated 2022).

Legend:
Assay type in all cases: in vivo, mouse
[1] = test system: allogeneic (C57BL/6J→BALB/c) BMT recipients; experiment: MHC-mismatched allo-BMT GVHD model with intragastric butyrate
Protocol: BMTs were performed as previously described (Reddy, P. et al. A crucial role for antigen-presenting cells and alloantigen expression in graft-versus-leukemia responses. Nat. Med. 11, 1244-1249 (2005); 15). Briefly, syngeneic (BALB/c→BALC/c or C57BL/6J→C57BL/6J) and allogeneic (C57BL/6J→BALB/c or C3H.sw→C57BL/6J) recipients received lethal irradiation. On day −1, BALB/c recipients received a total of 800 cGy of irradiation (split dose separated by 3 hours) and B6 animals received a single dose of 1000 cGy. Donor splenic CD90.2+ T cells were magnetically separated using an autoMACs (Miltenyi Biotec; Bergisch Gladbach, Germany) and 0.5×10^6 to 2.5×10^6 T cells were transferred to BALB/c and C57BL/6J recipients. 5×10^6 donor whole or TCD bone marrow was transferred to all recipients. Survival was monitored daily and the recipient body weight and GVHD clinical scores were determined weekly, as described previously42. Histopathologic analysis of the gastrointestinal (GI) tract was performed as described (Reddy, P. et al. A crucial role for antigen-presenting cells and alloantigen expression in graft-versus-leukemia responses. Nat. Med. 11, 1244-1249 (2005)). Animals received vehicle (sterile PBS, 0.0004 g Na+ per dose) or sodium butyrate (10 mg/kg, 0.00004 g Na+ per dose) by flexible 20G-1.5″ intragastric gavage needle daily for 1 week, then every other day thereafter.
Systemic administration of HDACi decreases acute GVHD (Reddy, P. et al. Histone deacetylase inhibitor suberoylanilide hydroxamic acid reduces acute graft-versus-host disease and preserves graft-versus-leukemia effect. Proc Natl Acad Sci USA 101, 3921-3926 (2004); Reddy, P. et al. Histone deacetylase inhibition modulates indoleamine 2,3-dioxygenasedependent DC functions and regulates experimental graft-versus-host disease in mice. J. Clin. Invest. 118, 2562-2573 (2008); Sun, Y. et al. Cutting edge: Negative regulation of dendritic cells through acetylation of the nonhistone protein STAT-3. J Immunol 182, 5899-5903 (2009)). It was therefore determined if increasing local levels of endogenous HDACi, butyrate, would impact GVHD severity. Again using the C57BL/6J into Balb/c model, vehicle control or butyrate was administered via daily intragastric gavage for one week, followed by administration every other day for the remainder of the experiment. […] Next, to further evaluate the magnitude of the butyrate-induced protective effect, GVHD mortality was determined utilizing the MHC disparate B6 into BALB/c model.

[2] = test system: CD326+ intestinal epithelial cells (IECs); experiment: Western blot / qPCR of CD326+ IECs isolated from BMT recipients
Protocol: CD326+ purified IECs were harvested from animals that received syngeneic (BALB/c→BALB/c) or allogeneic (C57BL/6J→BALB/c) BMT. Whole cell lysates were next obtained and protein concentrations determined with Pierce BCA Protein Assay (Thermo Scientific). Equal amounts of protein (20 μg) were separated by SDS-PAGE gel electrophoresis (120V, 1.5 h) and subsequently transferred to polyvinylidene difluoride (PVDF) membrane using a Bio-Rad semi-dry transfer cell (Hercules, Calif.) (20V, lh). The following antibodies were used to analyze the membranes with dilutions in accordance with the manufacturers specification sheet: α-tubulin (Cell Signaling, clone 11H10), Acetyl histone H4 (Lys5/8/12/16) (EMD Millipore, clone 3HH-4C10), SLC5A8 (abcam), GPR43 (abcam), Occludin (abcam, clone EPR8208), JAM (abcam, clone EP1042Y), and Claudin 5 (abcam). Secondary anti-rabbit antibody conjugated to HRP (Jackson ImmunoResearch, Cat No. 111-035-003) was used to detect primary antibodies, where needed. Densitometric analysis was performed using ImageJ software (National Institutes of Health; Bethesda, […].).
mRNA was isolated from samples using RNeasy kit following manufacturers instructions (Qiagen; Venlo, Netherlands). Using 1 μg of each mRNA template, cDNA was synthesized using SuperScript VILO (Invitrogen; Carlsbad, Calif.). qPCR primers were designed for murine targets. All primers were verified for the production of a single specific PCR product using a melting curve program and are shown below in Table 2.
It was next determined if the reduced amount of butyrate in IECs could be restored in vivo and further, whether this would have a functional impact on histone acetylation. In addition to utilizing transporters, butyrate can also diffuse across the mucosal barrier into IECs when present in high concentrations (Ganapathy, V., Thangaraju, M., Prasad, P. D., Martin, P. M. & Singh, N. Transporters and receptors for short-chain fatty acids as the molecular link between colonic bacteria and the host. Curr Opin Pharmacol 13, 869-874 (2013); Charney, A. N., Micic, L. & Egnor, R. W. Nonionic diffusion of short-chain fatty acids across rat colon. Am. J Physiol. 274, G518-24 (1998)). Therefore, it was hypothesized that administration of high amounts of butyrate locally would restore histone acetylation of IECs, in vivo. To test this, C57BL/6J cells were transferred to Balb/c mice and administered vehicle or butyrate via daily intragastric gavage.
To determine if these are involved in in vivo protection from GVHD, the expression of pro- and anti-apoptotic proteins as well as junctional proteins in IECs isolated 21 days following allo-BMT was determined. […] Overall, the results identify several ways in which butyrate can directly enhance epithelial cell function ranging from protection from irradiation and allo-T cell mediated apoptosis to proliferation and junctional protein expression, both in vitro and in vivo.

GI-barrier = experiment: FITC-dextran assay (intestinal permeability); conditions: 21 days following transplant; butyrate-treated vs vehicle allo-BMT recipients
Protocol: Food and water was withheld from all mice for four hours on day 21 post bone marrow transplant. FITC-dextran (Sigma-Aldrich; St. Louis, Mo.) was administered by 20G-1.5″ flexible intragastric gavage needle (Braintree Scientific; Braintree, Mass.) at a concentration of 50 mg/ml in PBS. BMT recipients received 800 mg/kg (˜16 mg/mouse). Four hours later, serum was collected from peripheral blood, diluted 1:1 with PBS, and analyzed on a plate reader at excitation/emission wavelength of 485 nm/535 nm. Concentrations of FITCdextran experimental samples were determined based on a standard curve.
Intestinal permeability after allo-BMT was assessed by intragastric administration of FITC-dextran, a non-metabolized carbohydrate (Hanash, A. M. et al. Interleukin-22 protects intestinal stem cells from immune-mediated tissue damage and regulates sensitivity to graft versus host disease. Immunity 37, 339-350 (2012)).

[3] = intragastric butyrate daily 1 week then every other day, vs vehicle
[4] = 21 days following allo-BMT, intragastric butyrate

SMILES: CCCC(=O)[O-].[Na+] [butyrate, sodium butyrate]
- histological scores in the intestines ([1]; 21 days following BMT, major MHC mismatch model): decreased histological scores
- GVHD mortality / survival ([1]; B6 into BALB/c, higher doses of T cells): significant GVHD survival benefit
- GVHD clinical scores [1, 3]: decreased
- survival [1, 3]: increased survival
- weight loss [1, 3]: decreased weight loss
- gene expression of junctional proteins in IECs ([2]; 21 days following allo-BMT, butyrate treated animals): similarly increased
- BCL-B (Bcl2110) expression in IECs [2, 4]: increased
- transcripts of Bak1 in IECs [2, 4]: significantly decreased
- transcripts of Bax in IECs [2, 4]: significantly decreased
- acetylation of histone H4 in IECs ([2]; C57BL/6J→Balb/c, daily intragastric butyrate for 21 days, vs untreated allo-BMT recipients): significantly restored
- butyrate transporter SLC5A8 in IECs ([2]; daily intragastric gavage of butyrate): increase
- protein amounts of Occludin, JAM and Claudin 5 (immunoblot) ([2]; recipients of allo-BMT treated with intragastric butyrate): increased junctional proteins
- detectable FITC-dextran in the serum (GI-barrier): significantly less
